Literature values in patent publication US20040127531A1, “Adhesive coated sheet for dermal delivery of a selective cyclooxygenase-2 inhibitor” (priority 2002, published 2004).

How the values were obtained:
COX-1 = COX-1 (Homo sapiens, UniProt P23219)
COX-2 = biological target: T1, COX-2 (Homo sapiens, UniProt P35354)
T1 sequence (P35354 18-604): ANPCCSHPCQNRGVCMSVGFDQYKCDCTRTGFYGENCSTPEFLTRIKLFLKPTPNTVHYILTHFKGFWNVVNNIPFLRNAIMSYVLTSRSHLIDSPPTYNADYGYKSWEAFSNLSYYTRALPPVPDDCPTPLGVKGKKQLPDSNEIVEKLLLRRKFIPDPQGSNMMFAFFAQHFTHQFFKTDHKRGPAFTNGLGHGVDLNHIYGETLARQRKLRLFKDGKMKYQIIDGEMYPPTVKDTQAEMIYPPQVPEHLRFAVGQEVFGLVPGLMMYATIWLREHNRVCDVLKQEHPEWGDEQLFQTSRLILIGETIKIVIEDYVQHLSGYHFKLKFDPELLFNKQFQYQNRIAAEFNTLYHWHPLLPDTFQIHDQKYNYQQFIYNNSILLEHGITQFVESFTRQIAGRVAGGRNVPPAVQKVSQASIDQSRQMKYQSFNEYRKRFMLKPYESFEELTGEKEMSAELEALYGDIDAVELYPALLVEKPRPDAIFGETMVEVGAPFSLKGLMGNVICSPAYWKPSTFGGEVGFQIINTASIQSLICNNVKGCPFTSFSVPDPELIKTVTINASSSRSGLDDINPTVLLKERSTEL

Sequence of COX-1 (P23219 24-599): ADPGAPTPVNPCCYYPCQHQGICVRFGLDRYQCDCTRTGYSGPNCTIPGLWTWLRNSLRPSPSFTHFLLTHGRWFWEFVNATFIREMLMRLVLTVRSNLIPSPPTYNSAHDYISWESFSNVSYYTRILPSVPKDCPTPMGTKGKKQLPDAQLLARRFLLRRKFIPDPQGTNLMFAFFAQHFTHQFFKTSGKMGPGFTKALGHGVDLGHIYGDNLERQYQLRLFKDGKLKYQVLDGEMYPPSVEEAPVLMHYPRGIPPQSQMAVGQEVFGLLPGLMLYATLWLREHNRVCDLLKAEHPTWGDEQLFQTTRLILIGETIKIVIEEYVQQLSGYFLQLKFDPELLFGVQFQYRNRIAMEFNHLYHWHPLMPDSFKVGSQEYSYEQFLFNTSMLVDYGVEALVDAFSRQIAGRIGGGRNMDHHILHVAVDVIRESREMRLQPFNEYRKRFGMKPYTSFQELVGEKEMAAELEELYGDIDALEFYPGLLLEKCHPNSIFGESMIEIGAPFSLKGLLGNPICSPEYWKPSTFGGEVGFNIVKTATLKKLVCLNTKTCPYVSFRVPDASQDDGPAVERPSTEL

Row | Structure (SMILES) | in vitro inhibitory activity against COX-1 (COX-1) | in vitro inhibitory activity against COX-2 (COX-2)
1 | Cc1onc(-c2ccccc2)c1-c1ccc(S(N)(=O)=O)cc1 [valdecoxib, 4-[5-methyl-3-phenylisoxazol-4-yl]benzenesulfonamide] | weak | 
2 | CCC(=O)NS(=O)(=O)c1ccc(-c2c(-c3ccccc3)noc2C)cc1 [Parecoxib, N-[[4-(5-methyl-3-phenylisoxazol-4-yl)phenyl]sulfonyl]propanamide] | weak | weak
